From PubChem BioAssay AID180 (DTP/NCI, 2004)
Where “and” joins values, the source holds several entries; their conditions need not be identical. Equal entries are not always repeated.

System: BDF1 mice, Adenocarcinoma 755 s.c., tumor weight T/C
Assay: NCI In Vivo Anticancer Drug Screen. Data for tumor model Adenocarcinoma 755 (subcutaneous) in B6D2F1 (BDF1) mice
Details: endpoint: mean tumor weight, higher = larger tumour
How it was run: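 Values express treated (T) relative to vehicle-dosed control (C) animals, based on survival or tumour size measured after compound treatment of mice bearing a transplanted tumour.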

[1] = dose: 15.0 mg/kg/injection, schedule: Q01DX011 (ip), vehicle: methylcellulose (MC)
[2] = dose: 31.0 mg/kg/injection, schedule: Q01DX011 (ip), vehicle: methylcellulose (MC)
[3] = dose: 62.0 mg/kg/injection, schedule: Q01DX011 (ip), vehicle: methylcellulose (MC)
[4] = dose: 125.0 mg/kg/injection, schedule: Q01DX011 (ip), vehicle: methylcellulose (MC)

CCCSc1ncnc2nc[nH]c12
T/C (dose: 0.12 mg/kg/injection, schedule: Q#A X022 (ip), vehicle: alcohol): 73 % of control
T/C (dose: 0.25 mg/kg/injection, schedule: Q#A X022 (ip), vehicle: alcohol): 46 % of control
T/C (dose: 0.5 mg/kg/injection, schedule: Q01DX011 (ip), vehicle: alcohol): 80 % of control
T/C (dose: 1.0 mg/kg/injection, schedule: Q01DX006 (iv), vehicle: alcohol): 111 % of control
T/C (dose: 1.0 mg/kg/injection, schedule: Q01DX011 (im), vehicle: alcohol): 82 % of control
T/C (dose: 1.0 mg/kg/injection, schedule: Q01DX011 (ip), vehicle: alcohol): 55 % of control
T/C (dose: 1.0 mg/kg/injection, schedule: Q01DX011 (oral), vehicle: alcohol): 44 % of control
T/C (dose: 1.0 mg/kg/injection, schedule: Q01DX011 (sc), vehicle: alcohol): 98 % of control
T/C (dose: 1.0 mg/kg/injection, schedule: Q03DX004 (ip), vehicle: alcohol): 56 % of control
T/C (dose: 2.5 mg/kg/injection, schedule: Q01DX011 (ip), vehicle: alcohol): 24 % of control
T/C (dose: 2.5 mg/kg/injection, schedule: Q#A X022 (ip), vehicle: alcohol): 7 % of control
T/C (dose: 3.0 mg/kg/injection, schedule: Q01DX011 (oral), vehicle: alcohol): 15 % of control
T/C (dose: 3.0 mg/kg/injection, schedule: Q03DX004 (ip), vehicle: alcohol): 85 % of control
T/C (dose: 3.0 mg/kg/injection, schedule: Q07DX002 (ip), vehicle: alcohol): 53 % of control
T/C (dose: 5.0 mg/kg/injection, schedule: Q01DX006 (iv), vehicle: alcohol): 16 % of control
T/C (dose: 5.0 mg/kg/injection, schedule: Q01DX011 (im), vehicle: alcohol): 9 % of control
T/C (dose: 5.0 mg/kg/injection, schedule: Q01DX011 (ip), vehicle: alcohol): 3 % of control
T/C (dose: 5.0 mg/kg/injection, schedule: Q01DX011 (sc), vehicle: alcohol): 5 % of control
T/C (dose: 5.0 mg/kg/injection, schedule: Q#A X022 (ip), vehicle: alcohol): 3 % of control
T/C (dose: 6.0 mg/kg/injection, schedule: Q01DX011 (oral), vehicle: alcohol): 4 % of control
T/C (dose: 6.0 mg/kg/injection, schedule: Q03DX004 (ip), vehicle: alcohol): 74 % of control
T/C (dose: 6.0 mg/kg/injection, schedule: Q07DX002 (ip), vehicle: alcohol): 20 % of control
T/C (dose: 10.0 mg/kg/injection, schedule: Q01DX006 (iv), vehicle: alcohol): 10 % of control
T/C (dose: 10.0 mg/kg/injection, schedule: Q01DX011 (ip), vehicle: alcohol): 4 % of control
T/C (dose: 10.0 mg/kg/injection, schedule: Q01DX011 (sc), vehicle: alcohol): 4 % of control
T/C (dose: 10.0 mg/kg/injection, schedule: Q#A X022 (ip), vehicle: alcohol): 4 % of control
T/C (dose: 12.0 mg/kg/injection, schedule: Q01DX001 (ip), vehicle: alcohol): 62 % of control
T/C (dose: 12.0 mg/kg/injection, schedule: Q01DX011 (oral), vehicle: alcohol): 4 % of control
T/C (dose: 12.0 mg/kg/injection, schedule: Q03DX004 (ip), vehicle: alcohol): 26 % of control
T/C (dose: 12.0 mg/kg/injection, schedule: Q07DX002 (ip), vehicle: alcohol): 36 % of control
T/C (dose: 20.0 mg/kg/injection, schedule: Q01DX006 (iv), vehicle: alcohol): 1 % of control
T/C (dose: 20.0 mg/kg/injection, schedule: Q01DX011 (ip), vehicle: alcohol): 2 % of control
T/C (dose: 20.0 mg/kg/injection, schedule: Q01DX011 (sc), vehicle: alcohol): 6 % of control
T/C (dose: 25.0 mg/kg/injection, schedule: Q01DX001 (ip), vehicle: alcohol): 49 % of control
T/C (dose: 25.0 mg/kg/injection, schedule: Q03DX004 (ip), vehicle: alcohol): 5 % of control
T/C (dose: 25.0 mg/kg/injection, schedule: Q07DX002 (ip), vehicle: alcohol): 12 % of control
T/C (dose: 30.0 mg/kg/injection, schedule: Q01DX011 (ip), vehicle: alcohol): 3 % of control
T/C (dose: 50.0 mg/kg/injection, schedule: Q03DX004 (ip), vehicle: alcohol): 16 % of control
T/C (dose: 50.0 mg/kg/injection, schedule: Q07DX002 (ip), vehicle: alcohol): 16 % of control
T/C (dose: 100.0 mg/kg/injection, schedule: Q01DX001 (ip), vehicle: alcohol): 35 % of control and 51 % of control
T/C (dose: 100.0 mg/kg/injection, schedule: Q03DX004 (ip), vehicle: alcohol): 3 % of control
T/C (dose: 100.0 mg/kg/injection, schedule: Q07DX002 (ip), vehicle: alcohol): 17 % of control
T/C (dose: 150.0 mg/kg/injection, schedule: Q01DX001 (ip), vehicle: alcohol): 21 % of control and 34 % of control
T/C (dose: 150.0 mg/kg/injection, schedule: Q03DX004 (ip), vehicle: alcohol): 5 % of control
T/C (dose: 150.0 mg/kg/injection, schedule: Q07DX002 (ip), vehicle: alcohol): 5 % of control
T/C (dose: 200.0 mg/kg/injection, schedule: Q07DX002 (ip), vehicle: alcohol): 5 % of control

CC1CN(Cc2ccccc2)C(=S)N(c2ccccc2)C1=O (centres undefined)
T/C [1]: 87 % of control
T/C [2]: 74 % of control
T/C [3]: 96 % of control
T/C [4]: 97 % of control
T/C (dose: 250.0 mg/kg/injection, schedule: Q01DX011 (ip), vehicle: methylcellulose (MC)): 82 % of control

O=C(CCBr)NCCCCNC(=O)CCBr
T/C (dose: 56.0 mg/kg/injection, schedule: Q01DX011 (ip), vehicle: methylcellulose (MC)): 83 % of control
T/C (dose: 113.0 mg/kg/injection, schedule: Q01DX011 (ip), vehicle: methylcellulose (MC)): 78 % of control

Nc1nc(N)c2[nH]c(N=Nc3ccc(N(CCO)CCO)cc3)nc2n1
T/C (dose: 37.5 mg/kg/injection, schedule: Q01DX011 (ip), vehicle: saline): 152 % of control
T/C (dose: 150.0 mg/kg/injection, schedule: Q01DX011 (ip), vehicle: saline): 65 % of control

OC1CC([CH2][Hg][I])OC([CH2][Hg][I])C1 (centres undefined)
T/C (dose: 25.0 mg/kg/injection, schedule: Q01DX011 (ip), vehicle: carboxymethylcellulose (CMC)): 60 % of control
T/C (dose: 50.0 mg/kg/injection, schedule: Q01DX011 (ip), vehicle: carboxymethylcellulose (CMC)): 30 % of control

CC(C)CN1CC(C)C(=O)N(c2ccccc2)C1=S (centres undefined)
T/C [1]: 51 % of control
T/C [2]: 89 % of control
T/C [3]: 79 % of control
T/C [4]: 57 % of control

S=c1c2[nH]cnc2ncn1CCSC1=NC=NC2=NC=NC21 (centres undefined)
T/C (dose: 4.0 mg/kg/injection, schedule: Q01DX011 (ip), vehicle: methylcellulose (MC)): 61 % of control
T/C (dose: 8.0 mg/kg/injection, schedule: Q01DX011 (ip), vehicle: methylcellulose (MC)): 71 % of control
T/C (dose: 16.0 mg/kg/injection, schedule: Q01DX011 (ip), vehicle: methylcellulose (MC)): 19 % of control

Cn1ncc2c([N+](C)(C)C)ncnc21
T/C (dose: 25.0 mg/kg/injection, schedule: Q01DX011 (ip), vehicle: saline): 82 % of control
T/C (dose: 75.0 mg/kg/injection, schedule: Q01DX011 (ip), vehicle: saline): 111 % of control

CC1=CCN2CCC(O)C12 (centres undefined)
T/C (dose: 38.0 mg/kg/injection, schedule: Q01DX011 (ip), vehicle: carboxymethylcellulose (CMC)): 95 % of control
T/C (dose: 150.0 mg/kg/injection, schedule: Q01DX011 (ip), vehicle: carboxymethylcellulose (CMC)): 75 % of control

C[C@@H]1CN(C(=O)CCBr)[C@@H](C)CN1C(=O)CCBr
T/C (dose: 113.0 mg/kg/injection, schedule: Q01DX011 (ip), vehicle: carboxymethylcellulose (CMC)): 50 % of control
T/C (dose: 225.0 mg/kg/injection, schedule: Q01DX011 (ip), vehicle: carboxymethylcellulose (CMC)): 48 % of control
T/C (dose: 450.0 mg/kg/injection, schedule: Q01DX011 (ip), vehicle: carboxymethylcellulose (CMC)): 57 % of control

O=[N+]([O-])c1ccc(-n2cnc3c(=S)nc[nH]c32)o1
T/C (dose: 0.2 mg/kg/injection, schedule: Q01DX011 (ip), vehicle: carboxymethylcellulose (CMC)): 105 % of control
T/C (dose: 0.4 mg/kg/injection, schedule: Q01DX011 (ip), vehicle: carboxymethylcellulose (CMC)): 92 % of control
T/C (dose: 0.8 mg/kg/injection, schedule: Q01DX011 (ip), vehicle: carboxymethylcellulose (CMC)): 86 % of control
T/C (dose: 1.6 mg/kg/injection, schedule: Q01DX011 (ip), vehicle: carboxymethylcellulose (CMC)): 29 % of control and 44 % of control
T/C (dose: 3.2 mg/kg/injection, schedule: Q01DX011 (ip), vehicle: carboxymethylcellulose (CMC)): 32 % of control
T/C (dose: 6.3 mg/kg/injection, schedule: Q01DX011 (ip), vehicle: carboxymethylcellulose (CMC)): 1 % of control

CC(=O)OCC1OC(n2cnc3c(=O)[nH]cnc32)CC1OC(C)=O (centres undefined)
T/C (dose: 60.0 mg/kg/injection, schedule: Q01DX011 (ip), vehicle: carboxymethylcellulose (CMC)): 75 % of control and 78 % of control
T/C (dose: 120.0 mg/kg/injection, schedule: Q01DX011 (ip), vehicle: carboxymethylcellulose (CMC)): 86 % of control
